87 molecules from a melting point compilation (Tetko et al.; mined from patent text by program, amines drawn as free bases though some values may be those of a salt) can be followed below.

Usually melting point stands for the temperature of the solid-liquid transition. Molecule `COCC1CN(c2ccc3cc(OCCS(C)(=O)=O)ccc3c2)C(=O)O1` (configuration not stated) displayed a melting point of 128 to 129 °C.
With `N#Cc1ccc(C(O)CCN2CC=C(c3ccc(Cl)cc3)CC2)cc1` (configuration not stated), the melting point fell in the range of 117 to 118 °C.
Then `c1ccc(NC2CCc3cccnc3C2)cc1` (configuration not stated), with 102 to 103 °C; and `NC(=O)COc1ccccc1N`, with 117 °C.
Molecule `CCc1c(C)nc2cccc(C)n2c1=O` registered a melting point of 127 to 128 °C.
For `Cc1cc(-n2ccc(OCc3ccccc3)cc2=O)sc1C(=O)NCc1cccc(F)c1`, the melting point is 140 to 141 °C.
In the case of `COC(=O)c1cc(OC)c(Cc2c(N)nc(N)nc2O)c(OC)c1`, the melting point is 224 to 226 °C.
As for `N[C@H]1CC[C@@H](C(=O)N2CCC(c3[nH]nc4c3C(=O)c3c(NC(=O)NN5CCOCC5)cccc3-4)CC2)CC1`, the melting point lay within 202 to 204 °C.
Consider `O=C(Nc1nnn[nH]1)c1cnc2sc3ccc(Cl)cc3n2c1=O`, for which the melting point is over 300 °C.
As to `COCCN(C)c1nnc(-c2ccc(-c3ccccc3)nc2)n1-c1cccc2nonc12`, the melting point lay in the range of 133 to 134 °C.
Then `O=C(O)C(=O)Nc1coc2ccc(Cl)cc2c1=O`, with 213 to 215 °C; and `COc1ccc2[nH]cc(CC(C)(C)N)c2c1`, with 114 to 116 °C.
In the case of `Cc1csc(Nc2nc(C(C)(C)C)c(O)c(C(C)(C)C)n2)n1`, the melting point was in the range of 171 to 173 °C.
`NS(=O)(=O)c1ccc(N2CN(c3cccc(Cl)c3)CC2=O)c(Cl)c1` came in with a melting point of 208 to 216 °C.
Then `Cc1cc(-c2cn(-c3cccc(OCCn4ccnc4)c3)c3ncnc(N)c23)cc(C)c1O`, with 100 °C; and `Oc1c(I)cccc1-c1c(Cl)cccc1Cl`, with 51 to 53 °C.
The same measure for `CC1(C)CC(=O)c2cc(O)ccc2S1`: 135 to 142 °C; for `CCC(CC)c1ccc(C(F)(F)F)c2nc(Oc3c(C)cc(Cl)cc3Cl)n(C)c12`: 149 to 151 °C; for `CC(C)(C)OC(=O)Nc1ccc(C#Cc2ccccc2)cc1[N+](=O)[O-]`: 146 to 148 °C.
Molecule `CCc1[nH]n(C2CCCC2)c2nc(-c3ccc4nccn4c3)nc(=O)c1-2` yielded a melting point of over 300 °C.
`CC1c2cccc3c2N(CC3)c2ccccc2N1C(=O)CCN1CCN(c2ccccc2)CC1` (configuration not stated) yielded a melting point of 139 to 141 °C.
For the molecule `COC(=O)CC(CNC(C)=O)c1cccc2ccc(OC)cc12` (configuration not stated), the melting point lay within 94 to 95 °C.
The same measure for `CCCCCCCCCCc1c(C(=O)O)sc2c1sc1c3sc(C(=O)O)c(CCCCCCCCCC)c3sc21`: 316 to 318 °C; for `Oc1ccc(C(=C(c2ccccc2)C(F)(F)F)c2ccc(OCCN3CCOCC3)cc2)cc1`: 154 to 157 °C; for `CC(C)OC(=O)N1CCN(c2ccn3ncc(-c4cccn(C)c4=O)c3n2)CC1`: 206 to 207 °C.
Then `CC(=O)O[C@@H]1[C@H](OC(C)=O)[C@@H](C)O[C@H]1n1c(Br)nc2c(Br)c(Cl)c(Cl)cc21`, with 152 to 154 °C.
Regarding `Cc1ccc(Sc2nc(Cl)c(C#N)cc2F)cc1`, the melting point fell in the range of 124 to 125 °C.
For `Cc1nc(N2CCN(CCCC(F)(F)F)C2=O)sc1-c1cc[nH]n1`, the melting point was 185 to 186 °C.
With `CC(=O)OC[C@H]1O[C@@H]2[C@@H](Sc3ccccc3N2C(=O)c2ccccc2)[C@@H](OC(C)=O)[C@@H]1OC(C)=O`, the melting point was in the range of 154 to 155 °C.
As for `O=C(/C=C/c1ccncc1)N[C@H]1c2ccccc2C[C@H]1O`, the melting point fell in the range of 205 to 207 °C.
The molecule `CCCc1nc(OC)c(NC(=O)N2CCN(c3cc(OC)cc(OC)c3)CC2)cc1C` yielded a melting point of 121 to 122 °C.
The same measure for `CCc1c(OC)nc(OC)nc1C(=O)c1cc(C)cc(C=O)c1`: 89 to 91 °C; for `CCc1ncc2n1-c1ccc(Cl)cc1C(c1ccccc1F)=NC2`: 140 to 143 °C; for `CS(=O)(=O)c1ccc(-c2cnn(-c3ccc(F)cc3)c(=O)c2-c2ccc(Cl)cc2)cc1`: 195 to 197 °C.
Molecule `CCOC(=O)c1c(-c2ccccc2)nc(Cl)n1C` displayed a melting point of 54 to 55 °C.
With `O=c1oc(=O)n(-c2ccccc2)c2ncccc12`, the melting point lay within 196 to 198 °C.
`COC(=O)c1ccc(C(=O)CCC(=O)c2ccc3c(c2)C(C)(C)CCC3(C)C)cc1` displayed a melting point of 126 to 129 °C.
The same measure for `Cc1ccc(-n2c(=O)cc(C(F)(F)F)[nH]c2=S)cc1OC(C)C`: 227 to 228 °C; for `O=C(c1ccccc1Cl)c1cc(Cl)cc(Br)c1I`: 86 to 87 °C; for `CS(=O)(=O)c1ccc(-c2cnn(-c3cc(Cl)cc(Cl)c3)c(=O)c2-c2ccc(F)cc2)cc1`: 289 to 294 °C.
Molecule `OC(Cc1ccc(C(F)(F)F)cc1)(Cn1ccnc1)Cn1cncn1` (configuration not stated) yielded a melting point of 159 to 161 °C.
`CCc1nc(N)nc(N)c1CCCc1cc(Cl)c(Cl)cc1Cl`: the melting point lay in the range of 168 to 182 °C.
`CCCCCCCCCCCC(=O)NC1C(C)C(c2ccccc2)NC(c2ccccc2)C1C` (configuration not stated) gave a melting point of 112 to 114 °C.
In turn, `Nc1c2c(nc3cccc(Cl)c13)CCCC2` gave a melting point of 144 to 145 °C.
Then `CCCN(C)CC(C)N1c2ccccc2Sc2ccc(C(N)=S)cc21` (racemic), with 204 °C; and `COc1ncc(C(F)(F)F)cc1-c1cccn2nc(Nc3ccc(C4CCNCC4)cc3)nc12`, with 106 to 108 °C; and `Cc1cccc2[nH]c(S(=O)Cc3cccn4ccnc34)nc12` (configuration not stated), with 166 to 168 °C.
`CCc1cc2c(s1)N=C(NNC(=O)NC)CN=C2c1ccccc1Cl` showed a melting point of 213 to 215 °C.
Regarding `Cc1ccc(C(=O)Nc2cccnc2)c(Nc2ccc3cn[nH]c3c2)n1`, the melting point was over 280 °C.
The same measure for `Fc1ccc(-c2ccn(C3CCN(Cc4ccccc4)CC3)c2-c2ccncc2)cc1`: 132 to 139 °C; for `COC(=O)c1nccnc1N(C)c1ccc(Cl)cc1[N+](=O)[O-]`: 111 to 112 °C.
`COc1cc(C=C2C(=O)CCc3cc(Cl)ccc32)c([N+](=O)[O-])cc1OC` showed a melting point of 56 to 58 °C.
Consider `CCOP(=O)(/C=C/c1cn(-c2ccccc2)nc1OCc1ccc(OCc2nc(-c3cccc(OCC(=O)O)c3)oc2C)c(OC)c1)OCC`, for which the melting point was 166 to 168 °C.
`CC(C)N(CCC(c1cccs1)c1ccc(O)cc1O)C(C)C` (configuration not stated) showed a melting point of 102 to 109 °C.
`N#Cc1c(SSc2ccc([N+](=O)[O-])cc2C(Cl)(Cl)Cl)ccc2ccccc12` registered a melting point of 170 °C.
In turn, `CS(=O)(=O)Nc1ccc(CCC(=O)O)cc1` returned a melting point of 152 to 154 °C.
Consider `N#Cc1c(C(F)(F)F)cc(N(Cc2ccccn2)Cc2ccccn2)cc1C(F)(F)F`, for which the melting point was 122 °C.
`Cc1nc2ccc(NS(=O)(=O)c3cccc(Cl)c3C)cc2nc1C`: the melting point was 225 to 226 °C.
As for `Cc1ncnn1-c1cc(F)ccc1CNC(=O)c1nc2n(c(=O)c1O)CCN2C(C)C`, the melting point was found to be 212 °C.
Then `O=C(Nc1ccccc1)Nc1cccc(-c2ccc(CC3SC(=O)NC3=O)cc2)c1` (configuration not stated), with 185 °C.
In the case of `O=c1[nH]c2ncncc2s1`, the melting point is over 108 °C.
The molecule `O=C(Nc1ccccc1C(c1ccc(O)cc1)c1ccc(O)cc1)C1CCCCC1` had a melting point of 220 to 223 °C.
Regarding `CCNC(=O)Nc1ccc2c(c1)C(=O)N(CCO[N+](=O)[O-])CO2`, the melting point fell in the range of 142 to 144 °C.
In turn, `CCOC(=O)c1ccc(NC(=O)C=CC=C(c2ccc(Cl)cc2)c2ccc(Cl)cc2)cc1` returned a melting point of 216 to 218 °C.
`CCOC(=O)C(=O)c1csc(NC(=S)NC(=O)c2ccccc2)n1` yielded a melting point of 155 to 157 °C.
For `Cc1[nH]c2ccccc2c1C[C@@H](N)C(=O)O`, the melting point lay within 244 to 246 °C.
Turning to `CC(Nc1cc(Cl)nc(SCC(=O)O)n1)c1ccc(Cl)cc1` (configuration not stated), the melting point lay in the range of 155 to 160 °C.
For the molecule `COc1ccc2c(c1)c1c3c(c(-c4c(Cl)cccc4OC)cc1n2CCO)C(=O)NC3=O`, the melting point lay within 264 to 268 °C.
On to `CONS(=O)(=O)c1cc(Cl)ccc1Cl`, for which the melting point was 127 to 128 °C.
`O=C(Nc1cccc2c(N=P(c3ccccc3)(c3ccccc3)c3ccccc3)ccnc12)c1c(Cl)cccc1Cl` displayed a melting point of 276 to 281 °C.
In the case of `COCC1COc2cc3ncnc(Nc4cccc(C(F)(F)F)c4)c3cc2O1` (configuration not stated), the melting point was 280 to 282 °C.
Molecule `COc1ccc(C=CC(=O)NCCc2ccc(-c3ccccc3)c(S(N)(=O)=O)c2)c(OC)c1` had a melting point of 85 °C.
The molecule `CC(C)SC(=S)N1Cc2[nH]c3ccccc3c2CC1C(=O)O` (configuration not stated) gave a melting point of 188 to 190 °C.
Then `COc1cc2[nH]c3ncnc(N4CCNCC4)c3c2cc1OC`, with 185 °C; and `CSc1ccc(-c2cc(C#N)c(=O)[nH]c2C)cc1`, with 275 to 276 °C.
`CCCCC(=O)NC(C(=O)OCC)=C(N)SCCOC(C)=O` displayed a melting point of 84 °C.
In the case of `NC(=Nc1ccc(CCCC(=O)Oc2cccc(Nc3ccccc3)c2)cc1)c1cccs1`, the melting point lay in the range of 110 to 112 °C.
`COC(=O)c1cc2cc(CBr)ccc2s1` displayed a melting point of 108 to 110 °C.
`CC(C)(C)OC(=O)Nc1cccc(-c2nc(=O)o[nH]2)c1` yielded a melting point of 193 °C.
In the case of `Cc1nc2c(O)c(CC[C@@H](O)c3ccccc3)c(C(=O)N(C)C)cc2n1COCC[Si](C)(C)C`, the melting point fell in the range of 142 to 143 °C.
With `C=CCN(CC=C)C(=O)n1cnc(S(=O)(=O)CCOCC)n1`, the melting point is 62 to 63 °C.
The molecule `CCCCOc1ccc2c(c1)C(N(CCCO)S(C)(=O)=O)CC(C)(C)O2` (configuration not stated) yielded a melting point of 69 to 71 °C.
In turn, `O=C1CCC(N2C(=O)c3cccc(NCC(=O)N4CCC4)c3C2=O)C(=O)N1` (configuration not stated) gave a melting point of 272 to 274 °C.
The molecule `NS(=O)(=O)c1ccc([C@H]2[C@H](C(=O)Nc3ccc(C(F)(F)F)cc3)C23CCCC3)cc1` (relative stereo) registered a melting point of 234 to 236 °C.
Then `COc1cc2c(cc1OC)CC(N(CC(=O)O)C(=O)C(C)CSC(C)=O)C2` (configuration not stated), with 135 to 137 °C.
As to `O=C(/C=C/c1ccccc1Sc1ccc(Cl)cc1)NC1CCC(O)CC1` (configuration not stated), the melting point fell in the range of 86 to 88 °C.
Then `CCCCC[C@H]1CC[C@H](C=CCCc2ccc(O)cc2)CC1`, with 89 to 90 °C.
